Test results taken from patent publication US7498353B2, “Heterocyclic anti-viral compounds comprising metabolizable moieties and their uses” (priority 2005, dated 2009).
pIC50: −log10 of the molar value. Where two headings read alike, the source gives them in different places.

Experiments:
[1] = Pharmacokinetic studies in portal/jugular vein cannulated rats after oral administration; format: in vivo, male Spraque-Dawley rats; conditions: for AUC: male, Sprague-Dawley, rat, 5 mg/kg oral dose of prodrug
Experimental: Pharamcokinetic studies were conducted in rats containing surgically implanted cannula in the portal and jugular veins. Blood samples were taken simultaneously from both cannula at various times after oral administration of the compounds. In the portal vein, the prodrugs are detected and, in some cases, the active compound, A-B—C—NHCOCHX2, has also been detected. The presence of active compound in the portal vein samples has been attributed to metabolism of the prodrug in transit through the gut wall. […] In the jugular samples, many, but not all, of the prodrugs have been detected in systemic circulation, depending on the hepatic extraction ratio of the prodrug.
Compounds were dissolved in a mixture of TPGS:PEG:PG (35%:60%:5%) and diluted with saline for oral administration. Typically, 6.5 mg of compound was dissolved in 1 ml of the organic mixture and added to 5.5 ml of saline. Animals were dosed with 5 ml/kg of this mixture to give a typical dose of 5 mg/kg. All animal studies were conducted in male Spraque-Dawley rats and the animals were fasted overnight prior to dose administration. Surgeries (to implant blood sampling cannula) were conducted at least two days prior to the study. Blood samples (100 μl) were collected using sodium heparin as anticoagulant and added to 300 μl of a mixture of acetate buffer (100 mM, pH=6.5):acetonitrile:ethanol:DMSO (2:1:1:2 v/v). Samples were centrifuged and the supernatant was analyzed by LC/MS/MS using the procedures outlined above. Standards were prepared similarly using fresh rat blood from naive animals.
No. 66 and Cpd. No. 64 (Table 3). […] Because the portal blood flows directly to the liver, the intact active parent compound may exert an anti-viral effect in the liver.

[2] = test system: HCV NS5A protein in 9-13 replicon cells; experiment: Quantitative Western blot replicon assay (HEPC_REPLICON-ICWESTERN); format: cell-based, Hepatitis C virus (HCV); conditions: Hepatitis C virus, read-out: HEPC_REPLICON-ICWESTERN Result Value (IC50)
Experimental: Alternatively, the inhibitory activity of the metabolically active agents of the prodrugs can be confirmed using a quantitative Western immunoblot assay utilizing antibodies specific for HCV non-structural proteins, such as NS3, NS4A NS5A and NS5B. In one embodiment of this assay, replicon cells are treated with varying concentrations of test prodrug to determine the concentration of the metabolically active agent of the test prodrug that yields a 50% reduction in the amount of a non-structural protein produced as compared to a control sample (IC50). A single non-structural protein may be quantified or multiple non-structural proteins may be quantified. Antibodies suitable for carrying out such immunoblot assays are available commercially (e.g., from BIODESIGN International, Saco, Me.).
Certain prodrugs of the invention, which may inhibit HCV translation or replication prior to metablism and/or are metabolized into active agents, were also tested for their ability to inhibit HCV replication using a quantitative Western blot analysis with antibodies specific for the HCV NS5A or other non-structural proteins. Actively dividing 9-13 replicon cells were seeded into 6-well plates at a density of 1×10^5 cells/well in a volume of 2 ml/well and incubated at 37° C. and 5% CO2 for 24 hours. Various concentrations of test prodrugs (in a volume of 10 ul) were added to the wells and the cells incubated for another 48 hours. Protein samples were prepared from the cultured cells, resolved on a SDS-PAGE gel and transferred to a nitrocellulose membrane. The membrane was blocked with 5% non-fat milk in PBS for 1 hour at room temperature. Primary antibody (anti NS5A antibody; BIODESIGN International, Saco, Me.) incubation was performed for 1 hour at room temperature, after which the membrane was washed 3 times (for 15 min per time) with PBST (PBS plus 0.1% Tween 20). Horseradish peroxidase conjugated secondary antibody incubation was performed for 1 hour at room temperature and the membrane was washed 3 times (for 15 min per time) with PBST. The membrane was then soaked in substrate solution (Pierce) and exposed to a film or quantified using an imager. In this assay, the amount of test prodrug that is believed to be transformed into an active agent under the given conditions that yielded a 50% reduction in the amount of NS5A protein translated as compared to a control sample (IC50) was determined.

[3] = test system: HCV replicon in 5-2 Luc replicon-comprising cells; experiment: HCV replicon assay, luciferase readout (HEPC_REPLICON-LUC); format: cell-based; conditions: Hepatitis C virus, read-out: HEPC_REPLICON-LUC Result Value (IC50)
Text: In one embodiment, the inhibitory activity of the metabolically active agent of the prodrug can be confirmed in a replicon assay that assesses the ability of a test compound to block or inhibit HCV replication in replicon cells. One example of a suitable replicon assay is the liver cell-line Huh 7-based replicon assay described in Lohmann et al., 1999, Science 285:110-113. A specific example of this replicon assay which utilizes luciferase translation is provided in the Examples Section. In one embodiment of this assay, the amount of test prodrug that yields a 50% reduction in translation as compared to a control cell (IC50) may be determined.
The inhibitory activity of certain prodrugs of the invention, which may inhibit HCV translation or replication prior to metablism and/or are metabolized into active agents, was confirmed using an HCV replicon assay. The HCV replicon can include such features as the HCV 5′ untranslated region including the HCV IRES, the HCV 3′ untranslated region, selected HCV genes encoding HCV polypeptides, selectable markers, and a reporter gene such as luciferase, GFP, etc. In the assay, actively dividing 5-2 Luc replicon-comprising cells (obtained from Ralf Bartenschlager; see Lohmann et al., 1999, Science 285:110-113) were seeded at a density of between about 5,000 and 7,500 cells/well onto 96 well plates (about 90 μl of cells per well) and incubated at 37° C. and 5% CO2 for 24 hours. Then, the test prodrug (in a volume of about 10 μl) was added to the wells at various concentrations and the cells were incubated for an additional 24-48 hours before luciferase assay. The media was aspirated from each well and Bright-Glo (Promega, Madison, Wis.) luciferase assay reagents were added to each well according to the manufacturer's instructions. Briefly, the Bright-Glo reagent was diluted 1:1 with PBS and 100 μl of diluted reagent was added to each well. After 5 min of incubation at room temperature, luciferin emission was quantified with a luminometer. In this assay, the amount of test prodrug that yielded a 50% reduction in luciferase emission (IC50) was determined. This IC50 value may represent the antiviral activity of the prodrug itself, the activity of prodrug transformed into its active metabolized form, or a combination of the two.

[4] = 9-13 replicon cells, 50% reduction in NS5A protein
[5] = 5-2 Luc replicon cells, 50% reduction in luciferase emission

SMILES: N[C@H](C(=O)NCCN(C(=O)C(Cl)Cl)c1cccc(-c2cc(-c3c(Cl)cccc3Cl)no2)c1)c1ccccc1 [Cpd. No. 18, (S)-N-(2-(2-Amino-2-phenylacetamido)ethyl)-2,2-dichloro-N-(3-(3-(2,6-dichlorophenyl)isoxazol-5-yl)phenyl)acetamide]
- AUC ([1]; portal vein blood): 627 ng·h/mL
- pIC50 [2, 4]: < 4.70

SMILES: CCOP(=O)(CCN(C(=O)C(Cl)Cl)c1cccc(-c2cc(-c3c(Cl)cccc3Cl)no2)c1)OCC [Cpd. No. 1, Diethyl 2-(2,2-Dichloro-N-(3-(3-(2,6-dichlorophenyl)isoxazol-5-yl)phenyl)acetamido)ethylphosphonate]
- AUC ([1]; in vivo): 176 ng·h/mL
- pIC50 [2]: 4.70 to 6.00
- pIC50 [3]: < 4.70

SMILES: COCN(C(=O)C(Cl)Cl)c1cccc(-c2cc(-c3c(Cl)cccc3Cl)no2)c1 [Cpd. No. 6, 2,2-Dichloro-N-(3-(3-(2,6-dichlorophenyl)isoxazol-5-yl)phenyl)-N-(methoxymethyl)acetamide]
- AUC ([1]; portal vein blood): 98.3 ng·h/mL
- pIC50 [2, 4]: > 6.00
- pIC50 [3, 5]: > 6.00

SMILES: COCN(C(=O)C(Cl)Cl)c1ccnc(-c2cc(-c3c(Cl)cccc3Cl)no2)c1 [Cpd. No. 7, 2,2-Dichloro-N-(2-(3-(2,6-dichlorophenyl)isoxazol-5-yl)pyridin-4-yl)-N-(methoxymethyl)acetamide]
- pIC50 [2, 4]: > 6.00
- pIC50 [3, 5]: 4.70 to 6.00

SMILES: CC(C)[C@@H](NC(=O)OCN(C(=O)C(Cl)Cl)c1ccnc(-c2cc(-c3c(Cl)cccc3Cl)no2)c1)C(=O)OC(C)(C)C [Cpd. No. 58, (R)-tert-Butyl 2-(((2,2-Dichloro-N-(2-(3-(2,6-dichlorophenyl)isoxazol-5-yl)pyridin-4-yl)acetamido)methoxy)carbonylamino)-3-methylbutanoate]
- pIC50 [2, 4]: 4.70 to 6.00
- pIC50 [3, 5]: < 4.70

SMILES: CC(C)C(NC(=O)CNC(=O)OC(C)(C)C)C(=O)CCN(C(=O)C(Cl)Cl)c1ccnc(-c2cc(-c3c(Cl)cccc3Cl)no2)c1 (stereo not drawn) [Cpd. No. 49, tert-Butyl 2-(6-(2,2-Dichloro-N-(2-(3-(2,6-dichlorophenyl)isoxazol-5-yl)pyridin-4-yl)acetamido)-2-methyl-4-oxohexan-3-ylamino)-2-oxoethylcarbamate]
- pIC50 [2, 4]: > 6.00
- pIC50 [3, 5]: > 6.00

SMILES: CC(C)C(N)C(=O)CCN(C(=O)C(Cl)Cl)c1ccnc(-c2cc(-c3c(Cl)cccc3Cl)no2)c1 (stereo not drawn) [Cpd. No. 3, N-(4-Amino-5-methyl-3-oxohexyl)-2,2-dichloro-N-(2-(3-(2,6-dichlorophenyl)isoxazol-5-yl)pyridin-4-yl)acetamide]
- pIC50 [2, 4]: > 6.00
- pIC50 [3, 5]: > 6.00

SMILES: CC(C)C(N)C(=O)NC(C(=O)CCN(C(=O)C(Cl)Cl)c1ccnc(-c2cc(-c3c(Cl)cccc3Cl)no2)c1)C(C)C (stereo not drawn) [Cpd. No. 48, 2-Amino-N-(6-(2,2-dichloro-N-(2-(3-(2,6-dichlorophenyl)isoxazol-5-yl)pyridin-4-yl)acetamido)-2-methyl-4-oxohexan-3-yl)-3-methylbutanamide]
- pIC50 [2, 4]: > 6.00
- pIC50 [3, 5]: > 6.00

SMILES: CCC(C)C(N)C(=O)CCN(C(=O)C(Cl)Cl)c1ccnc(-c2cc(-c3c(Cl)cccc3Cl)no2)c1 (stereo not drawn) [Cpd. No. 59, N-(4-Amino-5-methyl-3-oxoheptyl)-2,2-dichloro-N-(2-(3-(2,6-dichlorophenyl)isoxazol-5-yl)pyridin-4-yl)acetamide]
- pIC50 [2, 4]: > 6.00
- pIC50 [3, 5]: > 6.00

SMILES: O=C(Nc1ccnc(-c2cc(-c3c(Cl)cccc3Cl)no2)c1)C(Cl)Cl [Cpd. No. 64]
- Active parent compound concentrations versus dose ([1]; oral, portal vein): increase in a linear fashion with dose
- Absorption and hydrolysis of the orally administered parent compound ([1]; oral, portal vein plasma): well absorbed but is extensively hydrolyzed to the inactive metabolite

SMILES: CC(C)C(NC(=O)C(CCC(=O)OC(C)(C)C)NC(=O)OC(C)(C)C)C(=O)CCN(C(=O)C(Cl)Cl)c1ccnc(-c2cc(-c3c(Cl)cccc3Cl)no2)c1 (stereo not drawn) [Cpd. No. 55, tert-Butyl 4-(tert-Butoxycarbonylamino)-5-(6-(2,2-dichloro-N-(2-(3-(2,6-dichlorophenyl)isoxazol-5-yl)pyridin-4-yl)acetamido)-2-methyl-4-oxohexan-3-ylamino)-5-oxopentanoate]
- pIC50 [2, 4]: 4.70 to 6.00
- pIC50 [3, 5]: > 6.00
